Measured values: US10017453B2, “Pharmaceutically acceptable salts of fatty acids” (Dignity Sciences Limited, priority 2013, dated 2018)
≈ marks a conversion by molar mass, not a printed value.

Assays:
[1] = Qualitative solubility observations of the salts; type: physicochemical
Protocol: An alternative method to prepare 15-HETrE sodium salt by slurrying and avoid need for rotary evaporation could not be found. […] Scale up and characterization was completed for 15-HETrE sodium salt using rotary evaporation from 10% aqueous EtOH, then EtOH. […] Purity as measured by UPLC analysis was ˜81%.
Products of each of the Reactions were white in appearance. Filtration was carried out with a sintered funnel (no. 3, 10 mm diameter) under mild vacuum. Some filter cake products were yellow in appearance. The first ˜200 μL of filtrate were transferred into an HPLC vial. Filtration of the remaining reaction mixture (alternating between high and medium vacuum) yielded a filter cake that was transferred to a vacuum chamber and dried overnight before being stored in a freezer.

[2] = Dynamic vapor sorption (DVS) analysis; type: physicochemical; conditions: for Hygroscopicity according to the European Pharmacopeia classification: DVS
Excerpt: Post DVS XRPD analysis was not conducted as the material deliquesced.

[3] = Chemical stability at ambient temperature under vacuum for 8 days; type: physicochemical
Excerpt: Twenty four co-formers and acids were used to screen for stable forms of 15-HETrE but most yielded oils or gels. Salts with improved handling properties were isolated from the screen: sodium, ornithine, lysine, meglumine and piperazine, but all were poorly crystalline.
Properties of 15-HETrE salts prepared according to Examples 4-7 were compared against each other and against 15-HETrE free acid API.

[4] = Solvent-induced degradation of 15-(S)-HETrE lysine salt (ethyl acetate or methanol, overnight, UPLC); type: physicochemical
Protocol: An experiment to determine the degradation of 15-(S)-HETrE lysine salt, if any, when contacted with ethyl acetate or methanol. 15-(S)-HETrE lysine salt (100 mg) was dissolved in solvent (1 mL) and stirred overnight.

[5] = 8 Day Stability 40/75% RH of solids from the salt/cocrystal screen; type: physicochemical; conditions: 8 days
[6] = Reslurry of 15-(S)-HETrE lysine salt in ethyl acetate (impurity profile, NMR ratio); type: physicochemical
Protocol: An experiment was conducted to determine if the ratio of 15-(S)-HETrE to lysine would change after exposure to ethyl acetate. 15-(S)-HETrE lysine salt (100 mg) was suspended in HPLC grade ethyl acetate (1 mL) and stirred vigorously overnight at room temperature. The suspension was then filtered as described in previous examples. The impurity profiles of the starting 15-(S)-HETrE lysine salt (“before slurry”) and the slurried, filtered salt (“after reslurry”) are shown in Table 25.
NMR spectroscopy confirmed no change in the ratio of 15-(S)-HETrE-to-lysine ratio.

[7] = Storage stability up to 24 weeks, free acid versus lysine salt (FIG. 28); type: physicochemical
Protocol: The 15-HETrE-lysine salt is stable at 20° C. and 40% humidity as well as at 40° C. and 75% humidity, making the lysine salt useful for pharmaceutical applications. 15-HETrE lysine salt was prepared on a larger scale for the crystallization screen as a white powder.

[8] = ambient temperature; probably due to uptake of moisture
[9] = Degradation of 15-(S)-HETrE on exposure to isopropyl acetate (overnight, UPLC); type: physicochemical
Protocol: An experiment was conducted to examine whether any degradation would be observed upon exposure of 15-(S)-HETrE to isopropyl acetate. 15-(S)-HETrE (100 mg) was dissolved in isopropyl acetate (1 mL) and stirred overnight. This was sampled directly for UPLC analysis (Table 39).

[10] = Solubility screen of as-received 15-HETrE (aliquot addition method); type: physicochemical; conditions: for solubility: organic solvent or mixture, estimated, read-out: Solubility Range
Excerpt: This is believed to be due to degradation of 15-HETrE, therefore HFIPA was not used in any further studies of 15-HETrE.

[11] = in ethyl acetate, stirred overnight
[12] = original salt, before solvent contact
[13] = after reslurry in ethyl acetate, overnight, room temperature
[14] = before exposure to isopropyl acetate
[15] = in isopropyl acetate, stirred overnight

## CCCCCC(O)/C=C/C=C\C/C=C\CCCCCCC(=O)O.NCCCC[C@H](N)C(=O)O (stereo not shown) [15-HETrE lysine salt, 15-Hydroxy-eicosa-8(Z),11(Z),13(E)-trienoic acid lysine salt]
[1]; DMSO
  solubility: insoluble
[1]; chloroform
  solubility: insoluble
[1]; water
  solubility: dissolves readily
[2]
  Hygroscopicity according to the European Pharmacopeia classification: hygroscopic
[2]; above 80% RH
  DVS behaviour: deliquesced
[2]; below 70% RH
  DVS weight gain: less than 1%
[2]; between 70-80% RH
  DVS additional weight gain: 1%
[3]
  Chemical stability: chemically stable
[4]; [11]
  HETrE (RRT 1) peak area: 94.20%
  IMP 1 (RRT 0.62) peak area: 0.05%
  IMP 2 (RRT 0.64) peak area: 0.86%
  IMP 3 (RRT 0.69) peak area: 0.96%
  IMP 4 (RRT 0.91) peak area: 1.30%
  IMP 5 (RRT 1.03) peak area: 0.29%
  IMP 6 (RRT 1.1) peak area: 1.35%
  IMP 7 (RRT 1.75) peak area: 0.14%
[4]; in methanol, stirred overnight
  HETrE (RRT 1) peak area: 95.40%
  IMP 1 (RRT 0.62) peak area: 0.03%
  IMP 2 (RRT 0.64) peak area: 0.24%
  IMP 3 (RRT 0.69) peak area: 0.45%
  IMP 4 (RRT 0.91) peak area: 1.16%
  IMP 5 (RRT 1.03) peak area: 0.13%
  IMP 6 (RRT 1.1) peak area: 1.34%
  IMP 7 (RRT 1.75) peak area: 0.31%
[4]; [12]
  HETrE (RRT 1) peak area: 95.67%
  IMP 1 (RRT 0.62) peak area: 0.20%
  IMP 2 (RRT 0.64) peak area: 0.12%
  IMP 3 (RRT 0.69) peak area: 0.27%
  IMP 4 (RRT 0.91) peak area: 1.30%
  IMP 5 (RRT 1.03) peak area: 0%
  IMP 6 (RRT 1.1) peak area: 1.44%
  IMP 7 (RRT 1.75) peak area: 0.55%
[5]
  8 Day Stability 40/75% RH: 97% purity
[6]; [13]
  HETrE (RRT 1) in impurity profile: 95.69
  IMP 1 (RRT 0.62) in impurity profile: 0.16
  IMP 2 (RRT 0.64) in impurity profile: 0.39
  IMP 3 (RRT 0.69) in impurity profile: 0.16
  IMP 4 (RRT 0.91) in impurity profile: 1.08
  IMP 5 (RRT 1.03) in impurity profile: 0.07
  IMP 6 (RRT 1.1) in impurity profile: 1.47
  IMP 7 (RRT 1.75) in impurity profile: 0.11
[6]; before reslurry
  HETrE (RRT 1) in impurity profile: 96.66
  IMP 1 (RRT 0.62) in impurity profile: 0.04
  IMP 2 (RRT 0.64) in impurity profile: 0.09
  IMP 3 (RRT 0.69) in impurity profile: 0.11
  IMP 4 (RRT 0.91) in impurity profile: 1.01
  IMP 5 (RRT 1.03) in impurity profile: 0.15
  IMP 6 (RRT 1.1) in impurity profile: 1.39
  IMP 7 (RRT 1.75) in impurity profile: 0.26
[6]; ethyl acetate, overnight, room temperature, NMR
  Change in 15-(S)-HETrE-to-lysine ratio after reslurry: no change
[7]; 20° C. and 40% humidity
  Storage stability: stable
[7]; 40° C. and 75% humidity
  Storage stability: stable

## C1CNCCN1.CCCCCC(O)/C=C/C=C\C/C=C\CCCCCCC(=O)O (stereo not shown) [15-HETrE piperazine salt, 15-Hydroxy-eicosa-8(Z),11(Z),13(E)-trienoic acid piperazine salt]
[8]
  Behaviour on exposure to air: appears to flow on exposure to air at ambient temperature

## CCCCCC(O)/C=C/C=C\C/C=C\CCCCCCC(=O)[O-].[Na+] (stereo not shown) [15-HETrE sodium salt, 15-Hydroxy-eicosa-8(Z),11(Z),13(E)-trienoic acid sodium salt]
[1]; water used in the slurry preparation, salt did not precipitate
  solubility: highly soluble
[2]
  Hygroscopicity according to the European Pharmacopeia classification: very hygroscopic
[2]; below 40% RH
  DVS weight gain: less than 1%
[2]; high RH
  DVS behaviour: deliquesced
[5]
  8 Day Stability 40/75% RH: 95% purity

## CCCCCC(O)/C=C/C=C\C/C=C\CCCCCCC(=O)O (stereo not shown) [15-HETrE, 15-Hydroxy-eicosa-8(Z),11(Z),13(E)-trienoic acid]
[9]; [14]
  HETrE (RRT 1) peak area: 91.38%
  IMP 1 (RRT 0.62) peak area: 0.12%
  IMP 2 (RRT 0.64) peak area: 0.51%
  IMP 3 (RRT 0.66) peak area: 0.89%
  IMP 4 (RRT 0.69) peak area: 0.13%
  IMP 5 (RRT 0.72) peak area: 1.29%
  IMP 6 (RRT 0.85) peak area: 0.16%
  IMP 7 (RRT 0.91) peak area: 1.17%
  IMP 8 (RRT 0.98) peak area: 0.29%
  IMP 9 (RRT 1.03) peak area: 0.18%
  IMP 10 (RRT 1.1) peak area: 1.41%
  IMP 11 (RRT 1.75) peak area: 0.88%
[9]; [15]
  HETrE (RRT 1) peak area: 85.56%
  IMP 1 (RRT 0.62) peak area: 0.22%
  IMP 2 (RRT 0.64) peak area: 1.48%
  IMP 3 (RRT 0.66) peak area: 1.47%
  IMP 4 (RRT 0.69) peak area: 0.19%
  IMP 5 (RRT 0.72) peak area: 3.02%
  IMP 6 (RRT 0.85) peak area: 0.43%
  IMP 7 (RRT 0.91) peak area: 1.56%
  IMP 8 (RRT 0.98) peak area: 0.62%
  IMP 9 (RRT 1.03) peak area: 0.28%
  IMP 10 (RRT 1.1) peak area: 1.79%
  IMP 11 (RRT 1.75) peak area: 1.14%
[7]; stored up to 24 weeks at −20° C., 2-8° C., 25° C.
  Storage stability: unstable and degrades at all conditions with the exception of −20 °C
[10]; 1,1,1,3,3,3-hexafluoroisopropyl acrylate (HFIPA), believed to be degradation
  Stability when combined with HFIPA: rapid color change from clear, colorless to blood red to deep purple/black
[10]; Acetone
  solubility: 3120 to 9360 µg/mL (≈ 9.67 to 29 mM)
[10]; Acetonitrile (ACN)
  solubility: 930 to 2780 µg/mL (≈ 2.88 to 8.62 mM)
[10]; DCM
  solubility: 1170 to 3520 µg/mL (≈ 3.63 to 10.9 mM)
[10]; DMF
  solubility: 1230 to 3680 µg/mL (≈ 3.81 to 11.4 mM)
[10]; Dioxane
  solubility: 1660 to 4980 µg/mL (≈ 5.15 to 15.4 mM)
[10]; Ethanol (EtOH)
  solubility: 1260 to 3780 µg/mL (≈ 3.91 to 11.7 mM)
[10]; Ethyl acetate (EtOAc)
  solubility: 1890 to 5660 µg/mL (≈ 5.86 to 17.6 mM)
[10]; Methanol (MeOH)
  solubility: 2120 to 6360 µg/mL (≈ 6.57 to 19.7 mM)
[10]; THF
  solubility: 3320 to 9960 µg/mL (≈ 10.3 to 30.9 mM)
[10]; ten solvents tested
  Miscibility in solvents: miscible in all solvents tested
